Reference: ChEMBL document CHEMBL1139242, “Peptide deformylase inhibitors of Mycobacterium tuberculosis: synthesis, structural investigations, and biological results” (Bioorg Med Chem Lett, 2008)
pIC50: −log10 of the molar value. Values after ≈ are worked out from the molar mass of the structure shown.

How the values were obtained:
Peptide deformylase = target: T1, Peptide deformylase (Mycobacterium tuberculosis, UniProt P9WIJ3); assay: Inhibition of Mycobacterium tuberculosis peptide deformylase expressed in Escherichia coli M15(pREp4) by microplate assay
T1 sequence (P9WIJ3 whole entry): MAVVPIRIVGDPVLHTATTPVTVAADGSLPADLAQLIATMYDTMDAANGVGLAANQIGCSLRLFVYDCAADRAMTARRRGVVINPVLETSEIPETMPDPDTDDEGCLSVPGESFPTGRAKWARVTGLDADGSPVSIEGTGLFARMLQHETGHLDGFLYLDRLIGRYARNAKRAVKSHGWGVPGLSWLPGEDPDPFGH

[1] = system: Mycobacterium tuberculosis; assay: Antitubercular activity against Mycobacterium tuberculosis H37Rv after 14 days by turbidimetric assay; type: functional; conditions: 336 h

Row | Structure (SMILES) | pIC50 (Peptide deformylase) | MIC [1]
1 | CCCCC[C@H](CN(O)C=O)C(=O)N1CCC[C@H]1c1nc2ccccc2[nH]1 | 7.82 | –
2 | O=CN(O)C[C@@H](Cc1ccccc1)C(=O)N1CCC[C@H]1c1nc2ccccc2[nH]1 | 7.17 | –
3 | CCCCC[C@H](CN(O)C=O)C(=O)N1CCC[C@H]1c1nc2ccccc2o1 | 7.89 | –
4 | CCCC[C@H](CN(O)C=O)C(=O)N1CCC[C@H]1c1nc2ccccc2[nH]1 | 8.00 | 0.1 µg/mL (≈ 0.279 µM)
5 | O=CN(O)C[C@@H](CC1CC1)C(=O)N1CCC[C@H]1c1nc2ccccc2o1 | 7.68 | 0.2 µg/mL (≈ 0.56 µM)
6 | CCCC[C@H](C(=O)NO)C(=O)N1CCC[C@H]1c1nc2ccccc2o1 | 7.31 | –
7 | CCC[C@H](CN(O)C=O)C(=O)N1CCC[C@H]1c1nc2ccccc2[nH]1 | 7.62 | –
8 | CCCC[C@H](C(=O)NO)C(=O)N1CCC[C@H]1c1nc2ccccc2[nH]1 | 7.74 | –
9 | CCCC[C@H](CC(=O)O)C(=O)N1CCC[C@H]1c1nc2ccccc2o1 | 6.10 | –
10 | CCCC[C@H](CC(=O)O)C(=O)N1CCC[C@H]1c1nc2ccccc2[nH]1 | 6.69 | –
11 | CCCC[C@H](CN(O)C=O)C(=O)N1CCC[C@H]1C(=O)Nc1ccccn1 | – | 0.2 µg/mL (≈ 0.552 µM)
12 | CCC[C@H](CN(O)C=O)C(=O)N1CCC[C@H]1c1nc2ccccc2o1 | 7.55 | –
13 | O=CN(O)C[C@@H](Cc1ccccc1)C(=O)N1CCC[C@H]1c1nc2ccccc2o1 | 6.79 | –
14 | O=CN(O)C[C@@H](CC1CC1)C(=O)N1CCC[C@H]1c1nc2ccccc2[nH]1 | 8.10 | 0.05 µg/mL (≈ 0.14 µM)
15 | COc1c(N2CCNC(C)C2)c(F)cc2c(=O)c(C(=O)O)cn(C3CC3)c12 (centres undefined) [GATIFLOXACIN] | – | 0.07 µg/mL (≈ 0.186 µM)
16 | CCCC[C@H](CN(O)C=O)C(=O)N1CCC[C@H]1c1nc2ccccc2o1 | – | 0.15 µg/mL (≈ 0.417 µM)
